This is an account of results in USRE46630E1, “Substituted 4-pyridones and their use as inhibitors of neutrophil elastase activity” (Boehringer Ingelheim International GmbH, priority 2012, dated 2017).

This experiment deals with T1, Human neutrophil elastase (Homo sapiens, UniProt P08246).
T1 construct: purchased Calbiochem 324681
T1 sequence (P08246 30-267): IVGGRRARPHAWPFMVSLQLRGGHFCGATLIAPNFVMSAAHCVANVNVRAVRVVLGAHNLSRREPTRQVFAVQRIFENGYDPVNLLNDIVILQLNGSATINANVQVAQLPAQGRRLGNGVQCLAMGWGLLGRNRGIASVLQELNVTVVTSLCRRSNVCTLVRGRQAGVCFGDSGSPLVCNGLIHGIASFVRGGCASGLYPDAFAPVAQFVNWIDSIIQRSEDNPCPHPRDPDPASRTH
Put plainly: Human Neutrophil Elastase Assay. Type of experiment: biochemical. The following applies: Neutrophil Elastase assay; substrate MeOSuc-Ala-Ala-Pro-Val-AMC 250 μM; 15 min preincubation, 60 min incubation at room temperature; pH 7.5. The protocol:
Human Neutrophil Elastase Assay
All other materials were of the highest grade commercially available.
The following buffers were used: Compound buffer: 100 mM Tris, 500 mM NaCl, adjusted to pH 7.5; Assay buffer: 100 mM Tris, 500 mM NaCl, adjusted to pH 7.5, containing 0.01% BSA.
Assay conditions: Test compounds were prediluted in DMSO and subsequently in compound buffer (5% DMSO final). […] After inactivation of the enzyme, fluorescence intensities were measured at 380 nm excitation and 460 nm emission wavelengths.
Each plate contains wells with a high value control (DMSO+enzyme+substrate) and wells with a low value control (DMSO+inactivated enzyme+substrate). […] Means of low values were taken as 0%, means of high values as 100%.

SMILES strings stand for the structures.

For `CNC(=O)c1cn(C(C)c2ccc(C#N)cc2)c(C)c(-c2cccc(C(F)F)c2)c1=O` (single isomer, unassigned) [Example 8A], the midpoint of inhibition, the IC50, lay at 1.2 nM. Regarding `CNC(=O)c1cn(C(C)c2ccc(C#N)cc2)c(C)c(-c2cccc(C(F)F)c2)c1=O` (single isomer, unassigned) [Example 8B], inhibition was half-maximal at 522 nM (IC50). As for `CNC(=O)c1cn(C(C)c2ccc(C#N)cc2)c(C)c(-c2ccnc(C(F)(F)F)c2)c1=O` (single isomer, unassigned) [Example 9A], the IC50 (usually the concentration at which inhibition is half-maximal) amounted to 3.7 nM. Consider `CNC(=O)c1cn(C(C)c2ccc(C#N)cc2)c(C)c(-c2ccnc(C(F)(F)F)c2)c1=O` (single isomer, unassigned) [Example 9B], for which the IC50 was found to be 1510 nM. The compound `CCNC(=O)c1cn(C(C)c2ccc(C#N)cc2)c(C)c(-c2cccc(C(F)(F)F)c2)c1=O` (single isomer, unassigned) [Example 10A] yielded an IC50 of under 1 nM.

In turn, `CCNC(=O)c1cn(C(C)c2ccc(C#N)cc2)c(C)c(-c2cccc(C(F)(F)F)c2)c1=O` (single isomer, unassigned) [Example 10B] returned an IC50 of 290 nM. This counts as sub-micromolar.

`Cc1c(-c2cccc(C(F)F)c2)c(=O)c(C(=O)NCc2ccc(S(C)(=O)=O)cc2)cn1C(C)c1ccc(C#N)cc1` (single isomer, unassigned) [Example 11A] had an IC50 of under 1 nM. `Cc1c(-c2cccc(C(F)F)c2)c(=O)c(C(=O)NCc2ccc(S(C)(=O)=O)cc2)cn1C(C)c1ccc(C#N)cc1` (single isomer, unassigned) [Example 11B] registered an IC50 of 19.5 nM. This lies in the double-digit nanomolar range. Turning to `CNC(=O)c1cn(C(C)c2ccc(C#N)cn2)c(C)c(-c2cccc(C(F)(F)F)c2)c1=O` (single isomer, unassigned) [Example 15B], the midpoint of inhibition, the IC50, lay at 67.8 nM. In turn, `CNC(=O)c1cn(C(C)c2ccc(C#N)cn2)c(C)c(-c2cccc(C(F)F)c2)c1=O` (single isomer, unassigned) [Example 16A] had an IC50 of 4.2 nM. Against the preceding compound, the IC50 is about 16-fold lower.

Turning to `CNC(=O)c1cn(C(C)c2ccc(C#N)cn2)c(C)c(-c2cccc(C(F)F)c2)c1=O` (single isomer, unassigned) [Example 16B], the IC50 came to 372 nM. As to `CNC(=O)c1cn(C(C)c2ccc(C#N)cc2)c(C)c(-c2cccc(CF)c2)c1=O` (single isomer, unassigned) [Example 31B], half-maximal inhibition (IC50) required 4.2 nM. `Cc1c(-c2cccc(C(F)(F)F)c2)c(=O)c(C(=O)NCCO)cn1Cc1ccc(C#N)cc1` [Example 1.1, 1-(4-Cyano-benzyl)-6-methyl-4-oxo-5-(3-trifluoromethyl-phenyl)-1,4-dihydro-pyridine-3-carboxylic acid (2-hydroxy-ethyl)-amide] gave an IC50 of 15.2 nM. This IC50 lies about 3.6-fold higher than the previous one. In turn, `Cc1c(-c2cccc(C(F)(F)F)c2)c(=O)c(C(=O)NCC2CCN(C)CC2)cn1Cc1ccc(C#N)cc1` [Example 1.2] registered an IC50 of 48.3 nM. Compared with the last compound, the IC50 is about 3.2-fold higher. The same measure for `COCCCNC(=O)c1cn(Cc2ccc(C#N)cc2)c(C)c(-c2cccc(C(F)(F)F)c2)c1=O` [Example 1.3]: 13 nM. In turn, `Cc1c(-c2cccc(C(F)(F)F)c2)c(=O)c(C(=O)NCCCN(C)C)cn1Cc1ccc(C#N)cc1` [Example 1.4] showed an IC50 of 27.6 nM. In turn, `COCCNC(=O)c1cn(Cc2ccc(C#N)cc2)c(C)c(-c2cccc(C(F)(F)F)c2)c1=O` [Example 1.5] came in with an IC50 of 10.4 nM. The compound `Cc1c(-c2cccc(C(F)(F)F)c2)c(=O)c(C(=O)NCCN(C)C)cn1Cc1ccc(C#N)cc1` [Example 1.6] displayed an IC50 of 30.5 nM.

In the case of `Cc1c(-c2cccc(C(F)(F)F)c2)c(=O)c(C(=O)NCC2CCN(C(=O)CN(C)C)CC2)cn1Cc1ccc(C#N)cc1` [Example 1.7], the IC50 is 15.8 nM. Compound `Cc1c(-c2cccc(C(F)(F)F)c2)c(=O)c(C(=O)NCC2(O)CCN(C)CC2)cn1Cc1ccc(C#N)cc1` [Example 1.8] yielded an IC50 of 83 nM. As for `Cc1c(-c2cccc(C(F)(F)F)c2)c(=O)c(C(=O)NCCCO)cn1Cc1ccc(C#N)cc1` [Example 1.9], inhibition was half-maximal at 8.4 nM (IC50). With `Cc1c(-c2cccc(C(F)(F)F)c2)c(=O)c(C(=O)NCc2ccc([S+](C)[O-])cc2)cn1Cc1ccc(C#N)cc1` (centres unmarked) [Example 1.10], 1.1 nM corresponded to half-maximal inhibition (IC50). `CNC(=O)c1cn(Cc2ccc(C#N)cc2)c(C)c(-c2cccc(C(F)(F)F)c2)c1=O` [Example 1.11] displayed an IC50 of 14.4 nM.

Regarding `Cc1c(-c2cccc(C(F)(F)F)c2)c(=O)c(C(=O)NC2CNC(=O)C2)cn1Cc1ccc(C#N)cc1` (centres unmarked) [Example 1.12], half-maximal inhibition (IC50) was put at 12.1 nM.

For `Cc1c(-c2cccc(C(F)(F)F)c2)c(=O)c(C(=O)NCC[S+](C)[O-])cn1Cc1ccc(C#N)cc1` (centres unmarked) [Example 1.13], 6.6 nM corresponded to half-maximal inhibition (IC50).

On to `Cc1c(-c2cccc(C(F)(F)F)c2)c(=O)c(C(=O)NCc2ccnnc2)cn1Cc1ccc(C#N)cc1` [Example 1.14], for which the half-maximal inhibitory concentration (IC50) was 1.8 nM. Regarding `Cc1nnc(CNC(=O)c2cn(Cc3ccc(C#N)cc3)c(C)c(-c3cccc(C(F)(F)F)c3)c2=O)o1` [Example 1.15], the midpoint of inhibition, the IC50, lay at 7.9 nM. `Cc1c(-c2cccc(C(F)(F)F)c2)c(=O)c(C(=O)NCCCS(C)(=O)=O)cn1Cc1ccc(C#N)cc1` [Example 1.16] returned an IC50 of 7.4 nM. The same measure for `Cc1c(-c2cccc(C(F)(F)F)c2)c(=O)c(C(=O)NCC(O)CO)cn1Cc1ccc(C#N)cc1` (centres unmarked) [Example 1.17, 1-(4-Cyano-benzyl)-6-methyl-4-oxo-5-(3-trifluoromethyl-phenyl)-1,4-dihydro-pyridine-3-carboxylic acid (2,3-dihydroxy-propyl)-amide]: 21 nM; for `CCCNC(=O)c1cn(Cc2ccc(C#N)cc2)c(C)c(-c2cccc(C(F)(F)F)c2)c1=O` [Example 1.18]: 23.8 nM. The same measure for `Cc1c(-c2cccc(C(F)(F)F)c2)c(=O)c(C(=O)NC(CO)CO)cn1Cc1ccc(C#N)cc1` [Example 1.19]: 48.1 nM; for `Cc1c(-c2cccc(C(F)(F)F)c2)c(=O)c(C(=O)NCCCCO)cn1Cc1ccc(C#N)cc1` [Example 1.20]: 10.6 nM.

For the compound `Cc1c(-c2cccc(C(F)(F)F)c2)c(=O)c(C(=O)NCCN2CCNC2=O)cn1Cc1ccc(C#N)cc1` [Example 1.21], the IC50 worked out at 14.4 nM. Regarding `Cc1c(-c2cccc(C(F)(F)F)c2)c(=O)c(C(=O)NC(C)CO)cn1Cc1ccc(C#N)cc1` (centres unmarked) [Example 1.22], it took 44.6 nM to reach half-maximal inhibition (IC50). Compound `Cc1c(-c2cccc(C(F)(F)F)c2)c(=O)c(C(=O)NCC(C)O)cn1Cc1ccc(C#N)cc1` (centres unmarked) [Example 1.23] yielded an IC50 of 19 nM.

The compound `CCOCCNC(=O)c1cn(Cc2ccc(C#N)cc2)c(C)c(-c2cccc(C(F)(F)F)c2)c1=O` [Example 1.24] displayed an IC50 of 10 nM. This IC50 is about 1.9-fold lower than that of the compound before. Compound `Cc1c(-c2cccc(C(F)(F)F)c2)c(=O)c(C(=O)NCCOCCOCCO)cn1Cc1ccc(C#N)cc1` [Example 1.25] displayed a 50% inhibitory concentration (IC50) of 10.9 nM.

In the case of `Cc1c(-c2cccc(C(F)(F)F)c2)c(=O)c(C(=O)NCc2cnn(C)c2)cn1Cc1ccc(C#N)cc1` [Example 1.26], inhibition was half-maximal at 13.2 nM (IC50). Compound `Cc1c(-c2cccc(C(F)(F)F)c2)c(=O)c(C(=O)N[C@H]2CC[C@H](O)CC2)cn1Cc1ccc(C#N)cc1` [Example 1.27] displayed an IC50 of 46.4 nM. Consider `Cc1c(-c2cccc(C(F)(F)F)c2)c(=O)c(C(=O)NCCN2CCCC2=O)cn1Cc1ccc(C#N)cc1` [Example 1.28], for which 21.8 nM corresponded to half-maximal inhibition (IC50). Turning to `Cc1c(-c2cccc(C(F)(F)F)c2)c(=O)c(C(=O)NC2CCOCC2)cn1Cc1ccc(C#N)cc1` [Example 1.29], the IC50 came out at 31.6 nM. The IC50 values of the last two compounds are within 1.5-fold of each other.

With `Cc1c(-c2cccc(C(F)(F)F)c2)c(=O)c(C(=O)NCCn2cccn2)cn1Cc1ccc(C#N)cc1` [Example 1.30], the IC50 turned out to be 17.1 nM. `Cc1c(-c2cccc(C(F)(F)F)c2)c(=O)c(C(=O)NCc2cn(C)cn2)cn1Cc1ccc(C#N)cc1` [Example 1.31] returned an IC50 of 13.7 nM.

`Cc1c(-c2cccc(C(F)(F)F)c2)c(=O)c(C(=O)NCc2cncn2C)cn1Cc1ccc(C#N)cc1` [Example 1.32] gave an IC50 of 23 nM. The same measure for `Cc1c(-c2cccc(C(F)(F)F)c2)c(=O)c(C(=O)NCc2ccnn2C)cn1Cc1ccc(C#N)cc1` [Example 1.33]: 3.7 nM; for `Cc1c(-c2cccc(C(F)(F)F)c2)c(=O)c(C(=O)NCc2ccn(C)n2)cn1Cc1ccc(C#N)cc1` [Example 1.34]: 8.9 nM; for `Cc1c(-c2cccc(C(F)(F)F)c2)c(=O)c(C(=O)NCC2COCCO2)cn1Cc1ccc(C#N)cc1` (centres unmarked) [Example 1.35]: 31.4 nM. Compound `Cc1c(-c2cccc(C(F)(F)F)c2)c(=O)c(C(=O)N[C@H]2CCC(=O)N(C)C2)cn1Cc1ccc(C#N)cc1` [Example 1.36] returned an IC50 of 47.1 nM. `Cc1c(-c2cccc(C(F)(F)F)c2)c(=O)c(C(=O)NC2CCOC2)cn1Cc1ccc(C#N)cc1` (centres unmarked) [Example 1.37]: the midpoint of inhibition, the IC50, lay at 95.7 nM. The same measure for `Cc1c(-c2cccc(C(F)(F)F)c2)c(=O)c(C(=O)NC2COC2)cn1Cc1ccc(C#N)cc1` [Example 1.38]: 36.9 nM; for `Cc1c(-c2cccc(C(F)(F)F)c2)c(=O)c(C(=O)NC2CCNC2=O)cn1Cc1ccc(C#N)cc1` (centres unmarked) [Example 1.39]: 6.2 nM. Consider `Cc1c(-c2cccc(C(F)(F)F)c2)c(=O)c(C(=O)NCc2cccc(=O)[nH]2)cn1Cc1ccc(C#N)cc1` [Example 1.40], for which inhibition was half-maximal at 2.1 nM (IC50). As to `Cc1c(-c2cccc(C(F)(F)F)c2)c(=O)c(C(=O)NCc2cccnn2)cn1Cc1ccc(C#N)cc1` [Example 1.41], it took 3.2 nM to reach half-maximal inhibition (IC50).
